Results: patent publication US20120093917A1, “METNASE AND INTNASE INHIBITORS AND THEIR USE IN TREATING CANCER” (priority 2009, published 2012)

Legend:
Assay type in all cases: cell-based
[1] = system: human Pancreatic cancer cell line BXPC3; assay: Colony formation assay, pancreatic cancer cell line BXPC3; conditions: summary table / FIG. 34
Method: (§1) The human Pancreatic cancer cell line BXPC3 was plated (4000 cells per plate with a ˜10% plating efficiency) in 10 cm dishes, using 10 ml of RPMI media (always with 10% FBS) per plate, and placed in a […] incubator (5% CO2) for 24 hrs. After 24 hrs, each plate was treated with one or a combination of the following agents: DMSO (0.2% in solution), 0.3 μg/ml of gemcitabine (dissolved in 1×PBS), and/or 2 μM of each Metnase/Intnase inhibitor (dissolved in DMSO). When the DMSO, gemcitabine, and/or inhibitors were added, the plates were swirled several times to assure mixing. After the agents were added to the RPMI, the plates were put back into the incubators for 18 hrs. Following 18 hrs treatment, the media was removed and the cells were washed twice with 1×PBS. Ten ml of fresh RPMI with 10% FBS was added and the cells were placed back into the incubator for 14 days. After the incubation period that will allow surviving cells to form colonies, the media was discarded and surviving colonies were stained with methylene blue. Colonies, a reflection of a single surviving cell that expanded, were counted to measure survival. All experiments were run in triplicate. Experiments were normalized to either DMSO (black asterices) or gemcitabine (red asterices).

[2] = system: human myeloid cell line KG-1; assay: Leukemia cell line KG-1 growth curve, alone or with VP-16; conditions: for effect of compound alone on KG-1 growth, high dose: high (higher) dose of compound (added at 2 uM and 5 uM); for effect of compound alone on KG-1 growth, high dose / potentiation of low dose VP-16 on KG-1 growth, high dose of compound / effect of compound alone on KG-1 growth, lower/low dose / potentiation of low dose VP-16 on KG-1 growth, lower/low dose of compound: counted daily for 4 days; for potentiation of low dose VP-16 on KG-1 growth, high dose of compound: high (higher) dose of compound + VP-16 0.05 uM; for effect of compound alone on KG-1 growth, lower/low dose: lower (low) dose of compound (added at 2 uM and 5 uM); for potentiation of low dose VP-16 on KG-1 growth, lower/low dose of compound: lower (low) dose of compound + VP-16 0.05 uM; for KG-1 Leukemia cooperativity with VP-16 / KG-1 Leukemia potency: summary table / FIG. 34
Method: (§2) The human myeloid cell line KG-1 was grown in RPMI1640 with 10% FBS. The small cell lung cancer cell line CRL5898 was grown in HITES medium (Dulbecco's medium: Ham's F12, 50:50 mix, Insulin 0.005 mg/ml Transferrin 0.01 mg/ml Sodium selenite 30 nM Hydrocortisone 10 nM beta-estradiol 10 nM HEPES 10 mM L-glutamine 2 mM (in addition to that in the base medium)). Both cell lines were seeded at 10,000 cells/ml in the appropriate medium in 6 well plates. The Chem Div compounds were resuspended as 5 mM stock solutions in DMSO. The Chem Div compounds were added alone at 2 uM and 5 uM or in combination with VP-16 (also called etoposide) at 0.05 uM. DMSO was added to the control wells. Cells were plated and treated in triplicate and counted daily for 4 days.

[3] = system: small cell lung cancer cell line CRL5898; assay: Small cell lung cancer cell line CRL5898 growth, alone or with VP-16; conditions: for CLR5898 Small Cell Lung Cancer cooperativity with VP-16 / CLR5898 Small Cell Lung Cancer potency: summary table / FIG. 34
Method: as §2

cancer cells = assay: Summary statements: cytotoxicity for cancer cells alone and with chemotherapy; conditions: summary statement referring to figures
Method: as §1
The human colon cancer cell line SW48 was plated (1000 cells per plate with a ˜20% plating efficiency) in 10 cm dishes, using 10 ml of DMEM media (always with 10% FBS) per plate, and placed in a […] incubator (5% CO2) for 24 hrs. After 24 hr, each plate was treated with one or a combination of the following agents: DMSO (0.2% in solution), 3 μM 5-fluorouracil (5FU, dissolved in 1×PBS), and/or 2 μM of each Metnase/intnase inhibitor (dissolved in DMSO). When the DMSO, 5FU, and/or inhibitors were added, the plates were swirled several times to assure mixing. After agents were added to the DMEM, the plates were put back into the incubators for 18 hr. Following 18 hr treatment, the media was removed and the cells were washed twice with 1×PBS. Ten milliliters of fresh DMEM was added and the cells were placed back into the incubator for 7-14 days. After the incubation period that will allow surviving cells to grow and form colonies, media was discarded and surviving colonies were stained with methylene blue. Colonies, a reflection of a single surviving cell that expanded, were counted to measure survival. All experiments were run in triplicate. Experiments were normalized to either DMSO (black asterices) or 5FU (red asterices).
as §2

Row | SMILES | BxPC3 Pancreatic activity [1] | effect of compound alone on KG-1 growth, high dose [2] | potentiation of low dose VP-16 on KG-1 growth, high dose of compound [2] | effect of compound alone on KG-1 growth, lower/low dose [2] | potentiation of low dose VP-16 on KG-1 growth, lower/low dose of compound [2] | KG-1 Leukemia cooperativity with VP-16 [2] | KG-1 Leukemia potency [2] | potentiation of low dose VP-16 on CRL5898 cell growth ([3]; FIG. 33) | effect of compound alone on CRL5898 cell growth ([3]; FIG. 33, compared with low dose VP-16) | CLR5898 Small Cell Lung Cancer cooperativity with VP-16 [3] | CLR5898 Small Cell Lung Cancer potency [3] | cytotoxicity for cancer cells, compound alone (cancer cells) | cytotoxicity for cancer cells with chemotherapy agents (potentiation) (cancer cells)
1 | Cc1ccc(NCC(=O)Nc2cccc(C(=O)O)c2O)cc1 [8017-3379] | inactive | inhibited KG-1 leukemia cell growth even more than low dose VP-16 alone | no potentiation on the effect of low dose VP-16 | inhibited KG-1 leukemia cell growth even more than low dose VP-16 alone | no potentiation on the effect of low dose VP-16 | No or very weak | Potency in uM | some potentiation of the anti-proliferative effect of low dose VP-16 | inhibited cell growth of the small cell lung cancer cell line CRL5898, the same as low dose VP-16 | No or very | Potency in uM | cytotxoic for cancer cells alone | 
2 | CCn1cc(C(C)=O)c(=O)c2cc(F)c(N3CCN(C(=O)c4ccc(Cl)cc4)CC3)cc21 [5076-4170] | inactive | slowed the growth of the leukemia cell line KG-1 and caused cell death with prolonged treatment | some potentiation on the anti-proliferative effect of low dose VP-16 | slowed the growth of the leukemia cell line KG-1 and caused cell death with prolonged treatment | some potentiation on the anti-proliferative effect of low dose VP-16 |  | High potency, probably below 1 uM. |  |  |  |  | cytotxoic for cancer cells alone | increased the cytotoxicity of chemotherapy when added
3 | COc1ccc(Cn2c(C)c(CNC(C)c3ccccc3)c(C(=O)O)c2C)cc1 (stereo not drawn) [G396-1171] | inactive | decreasedKG-1 leukemia cell growth, similar to low dose VP-16 alone | potentiated the anti-proliferative effect of low dose VP-16 | decreased KG-1 leukemia cell growth, similar to low dose VP-16 alone | potentiated the anti-proliferative effect of low dose VP-16 | Cooperativity with VP-16 | Potency in uM |  |  | No | Potency in uM | cytotxoic for cancer cells alone | increased the cytotoxicity of chemotherapy when added
4 | CCn1cc(C(=O)O)c(=O)c2cc(F)c(N3CCN(C(=O)c4ccc(OC(C)=O)cc4)CC3)cc21 [5082-2438] | weak | decreased KG-1 leukemia cell growth, similar to low dose VP-16 alone | potentiated the anti-proliferative effect of low dose VP-16 and prolonged treatment resulted in cell death | decreased KG-1 leukemia cell growth, similar to low dose VP-16 alone | potentiated the effect of low dose VP-16 and prolonged treatment resulted in cell death | Cooperativity with VP-16 | Potency in uM |  |  | No or very | Potency in uM | cytotxoic for cancer cells alone | increased the cytotoxicity of chemotherapy when added
